# Where two headings read alike, the source gives them in different places.
# How the values were obtained:
# gastric mucosa of rats = assay: Ulcerogenic activity; type: in vivo, rat; settings: oral 0.0942 mmol/kg
# Description: The Compounds (4a-d, 5a-b) which were found potent as anti-inflammatory agents were further screened for their ulcerogenic risk. The compounds and the standard drug were tested at an oral dose of 0.0942 mmol/kg.
# Animals were divided into different groups consisting of 6 rats per group. […] The control group received 0.5% of the carboxymethylcellulose (CMC) solution. […] 24 h before the test compounds were administered. After receiving the medication, the rats were given regular food for 17 h and then sacrificed. The stomach was taken out and opened along its greater curvature before being gently cleansed by dipping it in normal saline and then washing it with distilled water. The mucosal injury/damage was examined thoroughly using a magnifying glass. The mucosal injury in each stomach was scored using the following score system: 0.5: Redness; 1.0: Spot Ulcers; 1.5: Hemorrhagic Streaks; 2.0: Ulcers > 3 but 5, 3.0: Ulcers > 5. The severity index (SI) of stomach mucosal injury was calculated as the mean score of each treated group minus the mean score of the control group.
# [1] = tested on: carrageenan-induced rat hind paw edema; assay: Carrageenan-induced rat paw edema inhibition assay; type: in vivo; settings: after 4 h; for % inhibition (paw edema) / Increase in Paw volume SEM: oral 0.0314 mmol/kg; for Activity relative to standard drug: relative to diclofenac sodium; for Increase in Paw volume SEM: n = 6
# Description: The anti-inflammatory efficacy of the newly synthesised compounds was assessed using a carrageenan-induced rat hind paw edema technique The animals were divided into groups of six at random, fasted for 24 h before to the experiment, and given free access to water. 0.5% CMC solution was given to the control group only. […] One hour after the administration of the test compounds and the reference drug, 0.1 mL of a 1% carrageenan solution in saline was subcutaneously injected into the subplantar area of the right hind paw of each rat. The right hind paw volume was measured using a Digital Plethysmometer PLM-01 Plus (Orchid Scientifics and Innovatives India Pvt. Ltd., Mumbai, India) at 3 and 4 h after carrageenan therapy. The following calculation was used to compute the percent edema inhibition from the mean effect in the treated and control animals: Percent edema inhibition=Vc-Vt/Vc×100 where Vc denotes the mean increase in paw volume in the control group of rats and Vt denotes the mean increase in paw volume in rats treated with test chemicals. After a 15-day washout period, the same group of rats utilised for the anti-inflammatory activity were employed for the ulcerogenic activity.
# [2] = biological target: Bovine serum albumin (BSA) (Bos taurus, UniProt P02769); assay: BSA (protein albumin) denaturation inhibition assay; settings: for BSA denaturation inhibition assay Mean absorbance ± SEM: 660 nm; for inhibition at 100 µg/mL: read-out: BSA denaturation inhibition assay % inhibition of denaturation, 100 μg/mL
# Chain of Bovine serum albumin (BSA) (P02769 25-607): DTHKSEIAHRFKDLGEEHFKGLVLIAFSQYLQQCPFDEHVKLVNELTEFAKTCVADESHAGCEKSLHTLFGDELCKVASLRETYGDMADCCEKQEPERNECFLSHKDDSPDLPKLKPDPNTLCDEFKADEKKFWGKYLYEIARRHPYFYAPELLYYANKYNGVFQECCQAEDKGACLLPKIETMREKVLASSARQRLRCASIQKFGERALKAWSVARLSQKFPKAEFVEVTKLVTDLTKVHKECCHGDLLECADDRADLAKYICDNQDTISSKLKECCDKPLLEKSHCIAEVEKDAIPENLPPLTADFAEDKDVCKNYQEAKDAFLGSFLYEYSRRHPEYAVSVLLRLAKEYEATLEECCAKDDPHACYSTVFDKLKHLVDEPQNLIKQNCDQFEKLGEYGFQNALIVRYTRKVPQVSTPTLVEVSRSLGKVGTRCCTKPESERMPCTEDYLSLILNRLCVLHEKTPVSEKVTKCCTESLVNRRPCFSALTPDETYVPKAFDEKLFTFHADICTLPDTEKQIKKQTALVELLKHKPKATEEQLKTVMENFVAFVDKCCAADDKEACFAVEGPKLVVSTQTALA
# Description: All the synthesized compounds were evaluated for anti-inflammatory activity by the inhibition of the albumin denaturation technique. […] All the test solutions (1 mL, 100 μg/mL) were then mixed with 1 mL of albumin solution (1%) and phosphate buffer saline and then incubated for around 15 min at 27 ± 1 °C. Further, the denaturation of protein was induced by keeping the reaction mixture on the water bath for 10 min and maintaining the temperature at 60 °C. Once the solution gets cooled, the turbidity was measured using UV–Visible spectrophotometer at 660 nm.
# EGFR kinase = EGFR kinase (Homo sapiens, UniProt P00533); assay: In vitro EGFR kinase inhibitory assay (ELISA, phospho-EGFR in A549 cell lysates)
# Chain of EGFR kinase (P00533 25-1210): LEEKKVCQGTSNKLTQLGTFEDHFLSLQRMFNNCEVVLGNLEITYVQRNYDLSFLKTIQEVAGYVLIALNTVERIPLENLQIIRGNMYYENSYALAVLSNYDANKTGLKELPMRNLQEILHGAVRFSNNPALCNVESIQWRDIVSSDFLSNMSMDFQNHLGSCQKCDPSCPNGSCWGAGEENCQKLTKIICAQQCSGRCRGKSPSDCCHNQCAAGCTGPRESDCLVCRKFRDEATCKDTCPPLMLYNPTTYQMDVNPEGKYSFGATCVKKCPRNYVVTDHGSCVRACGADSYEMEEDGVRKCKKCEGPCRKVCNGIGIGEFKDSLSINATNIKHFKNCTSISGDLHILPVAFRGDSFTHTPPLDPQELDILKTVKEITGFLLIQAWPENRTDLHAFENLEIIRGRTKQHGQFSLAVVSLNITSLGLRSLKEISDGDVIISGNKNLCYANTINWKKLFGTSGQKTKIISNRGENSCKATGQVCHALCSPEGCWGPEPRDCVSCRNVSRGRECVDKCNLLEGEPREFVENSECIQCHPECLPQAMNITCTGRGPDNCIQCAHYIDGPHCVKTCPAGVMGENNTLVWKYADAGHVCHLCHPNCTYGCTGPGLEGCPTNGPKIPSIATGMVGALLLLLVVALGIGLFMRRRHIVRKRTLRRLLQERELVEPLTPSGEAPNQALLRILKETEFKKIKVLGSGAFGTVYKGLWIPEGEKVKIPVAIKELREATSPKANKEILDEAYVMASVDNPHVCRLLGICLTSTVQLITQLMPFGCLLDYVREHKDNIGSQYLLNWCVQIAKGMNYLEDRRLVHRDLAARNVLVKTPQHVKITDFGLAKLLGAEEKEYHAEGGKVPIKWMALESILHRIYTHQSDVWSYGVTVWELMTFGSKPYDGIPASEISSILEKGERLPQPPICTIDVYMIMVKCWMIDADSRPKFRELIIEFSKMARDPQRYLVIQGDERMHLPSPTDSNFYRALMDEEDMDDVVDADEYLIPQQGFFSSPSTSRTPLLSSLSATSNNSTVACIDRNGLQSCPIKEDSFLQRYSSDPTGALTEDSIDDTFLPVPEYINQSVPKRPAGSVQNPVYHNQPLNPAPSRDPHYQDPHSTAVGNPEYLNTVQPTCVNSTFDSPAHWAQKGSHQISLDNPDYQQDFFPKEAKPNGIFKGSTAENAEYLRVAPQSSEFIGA
# Description: For all the synthesized compounds, the overall methodology of a spectrophotometric assay for the inhibition of EGFR tyrosine kinase activity was evaluated in human A549 cells, which expressed high levels of EGFR protein. […] Cells were then washed with cold PBS, lysed in 0.2 ml/well of HNTG buffer (50 mM HEPES [(4‐(2‐hydroxyethyl)‐piperazineethanesulfonic acid; pH 7.5], 150 mM NaCl, 1.5 mM MgCl, 10% glycerol, 1% Triton X‐100, 0.5 mM sodium fluoride, 2 g/ml aprotinin, 2 g/ml pepstatin A, 1 mM sodium orthovanadate, 2 g/ml leupeptin, 1 mM phenyl methyl sulfonyl fluoride) for 10 min, and the lysates were collected as the supernatant fraction after a 12‐min centrifugation at 15,000 g. The specific EGFR concentration was measured by ELISA assay. Briefly, the wells of ELISA plates were coated with supernatant fraction and incubated at 4 °C overnight After washing three times with buffer (20 mM PBS, pH 7.2 containing 0.05% Tween‐20), the wells were blocked with 1% BSA for 2–3 h at room temperature. Further, the plate was washed and then mouse serum at 1,000‐fold dilution was added, followed by washing and incubation with phospho‐EGFR antibody (Invitrogen) at 4 °C overnight. The wells were washed and incubated with substrate solution (o‐phenylenediamine dihydrochloride), for 30 min, and the absorbance read on an ELISA plate reader at 490 nm[52]. %Inhibition=mean OD of untreated group-mean OD of treated group/mean OD of untreated group)×100.
# [3] = tested on: HEK293 human embryonic kidney cell line; assay: MTT cytotoxicity assay, normal cell line HEK293; type: cell-based; settings: read-out: IC50 (Mean ± SD) HEK293
# Description: All the synthesized imidazothiazole derivatives linked with thiazolidinone moiety (4a-g and 5a-d, Fig. 4) were evaluated for their in- vitro anticancer activities against three selected human cancer cell lines namely non-small lung (A549), breast (MCF7) and colorectal (HCT116) and one normal human embryonic kidney cell line (HEK293) using the 3‐(4,5‐Dimethylthiazol‐2‐yl)-2,5‐Diphenyltetrazolium Bromide (MTT) assay method. […]. […].
# Cytotoxicity study of the newly synthesized derivatives 4a-g and 5a-d was performed by MTT colorimetric assay method. […] Compounds were tested against selected cancer cell lines namely A549 (Lung), MCF-7(Breast) HCT116 (Colon), normal human embryonic kidney cell line (HEK293) and procured from National Centre for Cell Science Complex (NCCS) Pune University, India. Into a 96 well plate, cells were seeded into each well (3 × 10^3 cells/ per well), the plate were incubated for 24 h, after that the culture medium was discarded and replaced with fresh medium along with our newly synthesized test compounds in different concentration (10, 20, 40 and 80 µM) followed by incubation for 72 h. Further, the media of each well of the plates were aspirated with the addition of 100 µL MTT solution followed by incubation for the next 5 h at 37 °C. Finally, each well is treated with DMSO (100 µL) and swirled to dissolve the dark crystals of formazan. ELISA reader was used to measure the absorbance at 570 nm. The experiment was repeated three times; Graph pad prism and excel are used to calculate the IC50 values.
# [4] = tested on: HCT116 human colorectal cancer cell line; assay: MTT cytotoxicity assay, HCT116; settings: HCT-116, 72 h, read-out: IC50 (µM) (Mean ± SD) HCT116
# Description: (§1) All the synthesized imidazothiazole derivatives linked with thiazolidinone moiety (4a-g and 5a-d, Fig. 4) were evaluated for their in- vitro anticancer activities against three selected human cancer cell lines namely non-small lung (A549), breast (MCF7) and colorectal (HCT116) and one normal human embryonic kidney cell line (HEK293) using the 3‐(4,5‐Dimethylthiazol‐2‐yl)-2,5‐Diphenyltetrazolium Bromide (MTT) assay method. […] Compounds were tested against selected cancer cell lines namely A549 (Lung), MCF-7(Breast) HCT116 (Colon), normal human embryonic kidney cell line (HEK293) and procured from National Centre for Cell Science Complex (NCCS) Pune University, India. Into a 96 well plate, cells were seeded into each well (3 × 10^3 cells/ per well), the plate were incubated for 24 h, after that the culture medium was discarded and replaced with fresh medium along with our newly synthesized test compounds in different concentration (10, 20, 40 and 80 µM) followed by incubation for 72 h. […] Finally, each well is treated with DMSO (100 µL) and swirled to dissolve the dark crystals of formazan. ELISA reader was used to measure the absorbance at 570 nm. The experiment was repeated three times; Graph pad prism and excel are used to calculate the IC50 values[51].
# [5] = tested on: gastric mucosa tissue of rats; assay: Lipid peroxidation in gastric mucosa; type: in vivo, rat; settings: oral 0.0942 mmol/kg
# Description: The compounds screened for ulcerogenic potential were also analysed for lipid peroxidation. Lipid peroxidation is measured as nmolMDA/100 mg of gastric mucosa tissue. […] Thus, it was concluded that protection of gastric mucosa might be related to the inhibition of lipid peroxidation.
# Lipid peroxidation in the gastric mucosa was determined using the reported method by Ohkawa H. et al.[61]. The gastric mucosa of the glandular area was scraped off using glass slides after the stomach had been examined for ulcers. Gastric mucosa was weighed (100 mg) and homogenised in 1.8 cm^3 of ice-cold solution of KCl (1.15%). The homogenate is further added with 0.2 cm^3 of 8.1% sodium dodecyl sulphate (SDS), 1.5 cm^3 of acetate buffer, and 1.5 cm^3 of 0.8% thiobarbituric acid. After adding all buffers, the mixture was kept for incubation for 60 min over water bath, maintaining the temperature of the water bath at 95 °C. Later, the mixture was allowed to cool and then extracted with a freshly prepared mixture of n-butanol and pyridine (15:1 v/v), the organic layer obtained was centrifuged at 3000 rpm for about 10 min. The organic layer was separated out and visualised on UV–visible spectrophotometer. Concentration was measured using the following formula: Concentration=Absorbance×volume×109÷1.56×10^5×1000
# Results obtained were expressed as nmol MDA/100 mg tissue and extinction coefficient (1.56 × 10^5) cm^-1 M^-1.
# [6] = tested on: A549 (Lung) cancer cell line; assay: MTT cytotoxicity assay, A549; settings: Homo sapiens, A549, 72 h, read-out: IC50 (µM) (Mean ± SD) A549
# Description: as §1
# [7] = tested on: MCF7 human breast cancer cell line; assay: MTT cytotoxicity assay, MCF7; settings: MCF7, 72 h, read-out: IC50 (µM) (Mean ± SD) MCF7
# Description: as §1
# [8] = tested on: carrageenan-induced paw edema inflammation; design: method as in earlier work; settings: albino rats; ref 50 (Saliyeva et al.); cited from earlier work
# [9] = HEK293, MTT, 72 h, normal cell line
BSA denaturation inhibition assay Mean absorbance ± SEM ([2]; 100 μg/mL),inhibition at 100 µg/mL [2],IC50 (EGFR kinase),melting point,Lipid peroxidation [5],BSA denaturation inhibition assay % inhibition of denaturation ([2]; 100 μg/mL),SMILES,Mean ulcer severity index ± SEM (gastric mucosa of rats),% inhibition (paw edema) [1],Activity relative to standard drug [1],"IC50 [3, 9]",IC50 [4],IC50 [6],IC50 [7],Increase in Paw volume SEM [1],% inhibition carrageenan-induced paw edema [8],"IC50 ([3]; HEK293, 72 h)"
0.326 ± 0.002,82%,36 ± 1.89 µM,151 to 153 °C,6.16 ± 0.135 Nmol MDA/100 mg tissue,,"CC1SC(c2c(-c3ccccc3)nc3sccn23)N(c2ccc(Cl)cc2Cl)C1=O (stereo not shown) [Compound 4d, 3-(2,4-Dichlorophenyl)-5-methyl-2-(6-phenylimidazo[2,1-b]thiazol-5-yl)thiazolidin-4-one]",1.250 ± 0.281,67.78%,84.39,181 ± 5.74 µM,49.5 ± 7.14 µM,31.8 ± 1.1 µM,35.8 ± 1.03 µM,,,
0.289 ± 0.012,61.1%,57.1 ± 0.38 µM,187 to 189 °C,,,"CC1SC(c2c(-c3ccccc3)nc3sccn23)N(c2ccc([N+](=O)[O-])cc2)C1=O (stereo not shown) [Compound 4e, 5-Methyl-3-(4-nitrophenyl)-2-(6-phenylimidazo[2,1-b]thiazol-5-yl) thiazolidin-4-one]",,,,125 ± 5.8 µM,89.9 ± 4.89 µM,50.6 ± 0.7 µM,43.6 ± 7.19 µM,,,
0.288 ± 0.002,60.6%,49.7 ± 4.89 µM,155 to 157 °C,,,Cc1ccc(N2C(=O)C(C)SC2c2c(-c3ccccc3)nc3sccn23)cc1 (stereo not shown) [Compound 4f],,,,147 ± 4.57 µM,47.6 ± 8.97 µM,40.22 ± 0.38 µM,33.7 ± 0.84 µM,,,
0.291 ± 0.011,62.1%,46.5 ± 7.14 µM,162 to 164 °C,,,"COc1ccc(N2C(=O)C(C)SC2c2c(-c3ccccc3)nc3sccn23)cc1 (stereo not shown) [Compound 4g, 3-(4-Methoxyphenyl)-5-methyl-2-(6-phenylimidazo[2,1-b]thiazol-5-yl) thiazolidin-4-one]",,,,164 ± 4.69 µM,76.3 ± 5.66 µM,70.1 ± 2.02 µM,52.9 ± 1.65 µM,,,
0.323 ± 0.002,79.9%,30.1 ± 4.17 µM,177 to 179 °C,5.75 ± 0.102 Nmol MDA/100 mg tissue,,"O=C1CSC(c2c(-c3ccccc3)nc3sccn23)N1c1ccc(Cl)cc1 (stereo not shown) [Compound 5a, 3-(4-Chlorophenyl)-2-(6-phenylimidazo[2,1-b]thiazol-5-yl) thiazolidin-4-one]",1.083 ± 0.238,76.24%,94.92,117 ± 5.69 µM,58.8 ± 3.14 µM,42.7 ± 3.35 µM,35.1 ± 1.25 µM,0.163 ± 0.018,,
0.317 ± 0.003,76.6%,33.1 ± 1.58 µM,159 to 161 °C,5.68 ± 0.071 Nmol MDA/100 mg tissue,,"O=C1CSC(c2c(-c3ccccc3)nc3sccn23)N1c1ccc(Br)cc1 (stereo not shown) [Compound 5b, 3-(4-Bromophenyl)-2-(6-phenylimidazo[2,1-b]thiazol-5-yl) thiazolidin-4-one]",1.000 ± 0.258,74.78%,93.10,105 ± 3.5 µM,58.6 ± 4.51 µM,35.5 ± 2.15 µM,44.2 ± 0.85 µM,0.133 ± 0.008,,
0.314 ± 0.003,79.9%,29.3 ± 4.61 µM,153 to 155 °C,,65.28%,Cc1ccc(N2C(=O)CSC2c2c(-c3ccccc3)nc3sccn23)cc1 (stereo not shown) [Compound 5c],,,,109 ± 5.32 µM,60 ± 6.44 µM,34.2 ± 2.82 µM,35.8 ± 4.61 µM,,,
0.287 ± 0.004,59.9%,48 ± 1.97 µM,160 to 162 °C,,,"COc1ccc(N2C(=O)CSC2c2c(-c3ccccc3)nc3sccn23)cc1 (stereo not shown) [Compound 5d, 3-(4-Methoxyphenyl)-2-(6-phenylimidazo[2,1-b]thiazol-5-yl) thiazolidin-4-one]",,,,111.8 ± 0.25 µM,65.2 ± 0.9 µM,33.1 µM,38.1 ± 0.89 µM,,,
,,,,,,"O=C(O)Cc1ccccc1Nc1c(Cl)cccc1Cl [Diclofenac sodium, reference compound]",,80.32%,,,,,,,38.8%,
,,,,,,"C#Cc1cccc(Nc2ncnc3cc(OCCOC)c(OCCOC)cc23)c1 [Erlotinib, reference compound]",,,,,12.5 ± 1.87 µM,8.34 ± 8.09 µM,10.7 ± 5.65 µM,,,80.2 ± 1.3 µM

# — article PMC11009276, “Design, synthesis, biological assessment and molecular modeling studies of novel imidazothiazole-thiazolidinone hybrids as potential anticancer and anti-inflammatory agents” (Scientific Reports, 2024)
